Measurements taken from patent publication US10750743B2, “Pyridazinone herbicides” (E.I. DU PONT DE NEMOURS AND COMPANY, priority 2015, dated 2020).

Legend:
Format in all cases: in vivo
[1] = test system: barnyardgrass (Echinochloa crus-galli); assay: Test A preemergence, directed soil spray, visual injury rating; conditions: 0 is no effect, 100 is complete control
How it was run: (§1)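 Injury ratings, 0 (no effect) to 100 (complete control), were scored visually versus untreated plants roughly 10 d after treatment under greenhouse conditions. Treatments used surfactant-containing solvent formulations, sprayed onto soil preemergence or onto one- to two-leaf seedlings (2-10 cm) postemergence, grown in a loam-sand mix.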

[2] = test system: foxtail, giant (giant foxtail, Setaria faberii); assay: as above; conditions: 0 is no effect, 100 is complete control
How it was run: as §1

kochia (Kochia scoparia) [3] = assay: as above; conditions: 0 is no effect, 100 is complete control
How it was run: as §1

[4] = test system: pigweed (Amaranthus retroflexus); assay: as above; conditions: 0 is no effect, 100 is complete control
How it was run: as §1

[5] = test system: ragweed (common ragweed, Ambrosia elatior); assay: as above; conditions: 0 is no effect, 100 is complete control
How it was run: as §1

[6] = test system: ryegrass, It. (Italian ryegrass, Lolium multiflorum); assay: as above; conditions: 0 is no effect, 100 is complete control
How it was run: as §1

[7] = test system: barnyardgrass (Echinochloa crus-galli); assay: Test B flooded paddy test, visual rating; conditions: Flood, 250 g ai/ha, applied to paddy water, rated after 13 to 15 d
Procedure: (§2) Plant species in the flooded paddy test selected from rice (Oryza sativa), sedge, umbrella (small-flower umbrella sedge, Cyperus difformis), ducksalad (Heteranthera limosa), and barnyardgrass (Echinochloa crus-galli) were grown to the 2-leaf stage for testing. At time of treatment, test pots were flooded to 3 cm above the soil surface, treated by application of test compounds directly to the paddy water, and then maintained at that water depth for the duration of the test. Treated plants and controls were maintained in a greenhouse for 13 to 15 d, after which time all species were compared to controls and visually evaluated. Plant response ratings, summarized in Table B, are based on a scale of 0 to 100 where 0 is no effect and 100 is complete control. A dash (-) response means no test result.

[8] = test system: ducksalad (Heteranthera limosa); assay: Test B flooded paddy test, visual rating; conditions: Flood, 250 g ai/ha, applied to paddy water, rated after 13 to 15 d
Procedure: as §2

rice (Oryza sativa) = assay: Test B flooded paddy test, visual rating; conditions: Flood, 250 g ai/ha, applied to paddy water, rated after 13 to 15 d
Procedure: as §2

[9] = test system: sedge, umbrella (small-flower umbrella sedge, Cyperus difformis); assay: Test B flooded paddy test, visual rating; conditions: Flood, 250 g ai/ha, applied to paddy water, rated after 13 to 15 d
Procedure: as §2

[10] = test system: barnyardgrass (Echinochloa crus-galli); assay: Test A postemergence application, visual injury rating; conditions: 0 to 100 scale, 0 no effect, 100 complete control
How it was run: as §1

[11] = test system: blackgrass (Alopecurus myosuroides); assay: as above; conditions: 0 to 100 scale, 0 no effect, 100 complete control
How it was run: as §1

corn (Zea mays) = assay: as above; conditions: 0 to 100 scale, 0 no effect, 100 complete control
How it was run: as §1

[12] = test system: foxtail, giant (giant foxtail, Setaria faberii); assay: as above; conditions: 0 to 100 scale, 0 no effect, 100 complete control
How it was run: as §1

[13] = test system: galium (catchweed bedstraw, Galium aparine); assay: as above; conditions: 0 to 100 scale, 0 no effect, 100 complete control
How it was run: as §1

kochia (Kochia scoparia) [14] = assay: as above; conditions: 0 to 100 scale, 0 no effect, 100 complete control
How it was run: as §1

[15] = test system: pigweed (Amaranthus retroflexus); assay: as above; conditions: 0 to 100 scale, 0 no effect, 100 complete control
How it was run: as §1

[16] = test system: ragweed (common ragweed, Ambrosia elatior); assay: as above; conditions: 0 to 100 scale, 0 no effect, 100 complete control
How it was run: as §1

[17] = test system: ryegrass, It. (Italian ryegrass, Lolium multiflorum); assay: as above; conditions: 0 to 100 scale, 0 no effect, 100 complete control
How it was run: as §1

[18] = test system: wheat (Triticum aestivum); assay: as above; conditions: 0 to 100 scale, 0 no effect, 100 complete control
How it was run: as §1

Row | SMILES | Plant response rating (0 to 100 scale), Barnyardgrass ([1]; 125 g ai/ha) | Plant response rating (0 to 100 scale), Barnyardgrass ([1]; 500 g ai/ha) | Plant response rating (0 to 100 scale), Foxtail, Giant ([2]; 125 g ai/ha) | Plant response rating (0 to 100 scale), Foxtail, Giant ([2]; 500 g ai/ha) | Plant response rating (0 to 100 scale), Kochia (kochia (Kochia scoparia) [3]; 125 g ai/ha) | Plant response rating (0 to 100 scale), Kochia (kochia (Kochia scoparia) [3]; 500 g ai/ha) | Plant response rating (0 to 100 scale), Pigweed ([4]; 125 g ai/ha) | Plant response rating (0 to 100 scale), Pigweed ([4]; 500 g ai/ha) | Plant response rating (0 to 100 scale), Ragweed ([5]; 125 g ai/ha) | Plant response rating (0 to 100 scale), Ragweed ([5]; 500 g ai/ha) | Plant response rating (0 to 100 scale), Ryegrass, It. ([6]; 125 g ai/ha) | Plant response rating (0 to 100 scale), Ryegrass, It. ([6]; 500 g ai/ha) | Barnyardgrass plant response rating (0 to 100 scale, 0 is no effect, 100 is complete control) [7] | Ducksalad plant response rating (0 to 100 scale, 0 is no effect, 100 is complete control) [8] | Rice plant response rating (0 to 100 scale, 0 is no effect, 100 is complete control) (rice (Oryza sativa)) | Sedge, Umbrella plant response rating (0 to 100 scale, 0 is no effect, 100 is complete control) [9] | Barnyardgrass plant response rating ([10]; 125 g ai/ha) | Barnyardgrass plant response rating ([10]; 500 g ai/ha) | Blackgrass plant response rating ([11]; 125 g ai/ha) | Blackgrass plant response rating ([11]; 500 g ai/ha) | further results
1 | Cc1nn(C)c(=O)c(-c2cccc3scnc23)c1O [Compound 1] | 0 | 20 | 0 | 20 | 0 | 0 | 0 | 0 | 0 | 20 | 0 | 70 | 0 | 0 | 0 | 0 | 0 | 0 | 0 | 10 | Corn plant response rating (corn (Zea mays); 125 g ai/ha): 0; Corn plant response rating (corn (Zea mays); 500 g ai/ha): 0; Foxtail, Giant plant response rating ([12]; 125 g ai/ha): 0; Foxtail, Giant plant response rating ([12]; 500 g ai/ha): 0; Galium plant response rating ([13]; 125 g ai/ha): 0; Galium plant response rating ([13]; 500 g ai/ha): 30; Kochia plant response rating (kochia (Kochia scoparia) [14]; 125 g ai/ha): 0; Kochia plant response rating (kochia (Kochia scoparia) [14]; 500 g ai/ha): 0; Pigweed plant response rating ([15]; 125 g ai/ha): 0; Pigweed plant response rating ([15]; 500 g ai/ha): 10; Ragweed plant response rating ([16]; 125 g ai/ha): 0; Ragweed plant response rating ([16]; 500 g ai/ha): 10; Ryegrass, It. plant response rating ([17]; 125 g ai/ha): 0; Ryegrass, It. plant response rating ([17]; 500 g ai/ha): 40; Wheat plant response rating ([18]; 125 g ai/ha): 0; Wheat plant response rating ([18]; 500 g ai/ha): 0
2 | Cc1ccc2ccoc2c1-c1c(O)c(C)nn(C)c1=O [Compound 7] | 10 | 90 | 20 | 90 | 30 | 90 | 100 | 100 | 40 | 90 | 100 | 100 | 0 | 0 | 0 | 0 | 30 | 80 | 80 | 90 | Corn plant response rating (corn (Zea mays); 125 g ai/ha): 0; Corn plant response rating (corn (Zea mays); 500 g ai/ha): 60; Foxtail, Giant plant response rating ([12]; 125 g ai/ha): 80; Foxtail, Giant plant response rating ([12]; 500 g ai/ha): 90; Galium plant response rating ([13]; 125 g ai/ha): 100; Galium plant response rating ([13]; 500 g ai/ha): 100; Kochia plant response rating (kochia (Kochia scoparia) [14]; 125 g ai/ha): 100; Kochia plant response rating (kochia (Kochia scoparia) [14]; 500 g ai/ha): 100; Pigweed plant response rating ([15]; 125 g ai/ha): 90; Pigweed plant response rating ([15]; 500 g ai/ha): 90; Ragweed plant response rating ([16]; 125 g ai/ha): 90; Ragweed plant response rating ([16]; 500 g ai/ha): 90; Ryegrass, It. plant response rating ([17]; 125 g ai/ha): 100; Ryegrass, It. plant response rating ([17]; 500 g ai/ha): 100; Wheat plant response rating ([18]; 125 g ai/ha): 20; Wheat plant response rating ([18]; 500 g ai/ha): 70
3 | CC(=O)Oc1c(C)nn(C)c(=O)c1-c1cncc2ccccc12 [Compound 8] | 0 | 0 | 0 | 20 | 0 | 0 | 20 | 70 | 0 | 0 | 0 | 30 | 0 | 0 | 0 | 0 | 0 | 20 | 0 | 0 | Corn plant response rating (corn (Zea mays); 125 g ai/ha): 0; Corn plant response rating (corn (Zea mays); 500 g ai/ha): 0; Foxtail, Giant plant response rating ([12]; 125 g ai/ha): 0; Foxtail, Giant plant response rating ([12]; 500 g ai/ha): 20; Galium plant response rating ([13]; 125 g ai/ha): 10; Galium plant response rating ([13]; 500 g ai/ha): 80; Kochia plant response rating (kochia (Kochia scoparia) [14]; 125 g ai/ha): 30; Kochia plant response rating (kochia (Kochia scoparia) [14]; 500 g ai/ha): 80; Pigweed plant response rating ([15]; 125 g ai/ha): 70; Pigweed plant response rating ([15]; 500 g ai/ha): 80; Ragweed plant response rating ([16]; 125 g ai/ha): 0; Ragweed plant response rating ([16]; 500 g ai/ha): 0; Ryegrass, It. plant response rating ([17]; 125 g ai/ha): 0; Ryegrass, It. plant response rating ([17]; 500 g ai/ha): 30; Wheat plant response rating ([18]; 125 g ai/ha): 0; Wheat plant response rating ([18]; 500 g ai/ha): 0
